These results are taken from patent US11673889B2, “Substituted imidazo[4,5-c][1,8]naphthyridines as phosphodiesterase inhibitors” (Nanjing Zhengxiang Pharmaceuticals Co., Ltd., priority 2019, dated 2023).

pIC50: −log10 of the molar value.

A word on the pIC50: it is the negative decadic logarithm of the IC50, by convention in mol/L. The low end stands for a high IC50, the high end for a low IC50. In general, inhibition refers to the share of the control response that was lost under treatment.

The nature of series [1]: Liver microsome stability, human. It is filed as in vitro ADME. The procedure: (§1) Liver microsome assay was used to evaluate the metabolic stability of I-VI. The test article at the concentration of […] was incubated with 0.5 mg/mL liver microsome in the presence of NADPH and UDPGA as the co-factors for 0, 15, 30, 45 and 60 minutes. The incubation was carried out at 37° C. with 5% CO2 and saturating humidity. Disappearance of the test article was monitored by LC/MS/MS. the disappearance half-life (t1/2), intrinsic clearance and hepatic extraction ratio were determined.

The target in a further series is T1, ENPP-1, HEK293 cells (Homo sapiens, UniProt P22413).
T1 construct: ENPP-1 were mainly expressed on the surface of cell membrane; endogenous in cells; host or cells: HEK293
T1 sequence (P22413 1-925): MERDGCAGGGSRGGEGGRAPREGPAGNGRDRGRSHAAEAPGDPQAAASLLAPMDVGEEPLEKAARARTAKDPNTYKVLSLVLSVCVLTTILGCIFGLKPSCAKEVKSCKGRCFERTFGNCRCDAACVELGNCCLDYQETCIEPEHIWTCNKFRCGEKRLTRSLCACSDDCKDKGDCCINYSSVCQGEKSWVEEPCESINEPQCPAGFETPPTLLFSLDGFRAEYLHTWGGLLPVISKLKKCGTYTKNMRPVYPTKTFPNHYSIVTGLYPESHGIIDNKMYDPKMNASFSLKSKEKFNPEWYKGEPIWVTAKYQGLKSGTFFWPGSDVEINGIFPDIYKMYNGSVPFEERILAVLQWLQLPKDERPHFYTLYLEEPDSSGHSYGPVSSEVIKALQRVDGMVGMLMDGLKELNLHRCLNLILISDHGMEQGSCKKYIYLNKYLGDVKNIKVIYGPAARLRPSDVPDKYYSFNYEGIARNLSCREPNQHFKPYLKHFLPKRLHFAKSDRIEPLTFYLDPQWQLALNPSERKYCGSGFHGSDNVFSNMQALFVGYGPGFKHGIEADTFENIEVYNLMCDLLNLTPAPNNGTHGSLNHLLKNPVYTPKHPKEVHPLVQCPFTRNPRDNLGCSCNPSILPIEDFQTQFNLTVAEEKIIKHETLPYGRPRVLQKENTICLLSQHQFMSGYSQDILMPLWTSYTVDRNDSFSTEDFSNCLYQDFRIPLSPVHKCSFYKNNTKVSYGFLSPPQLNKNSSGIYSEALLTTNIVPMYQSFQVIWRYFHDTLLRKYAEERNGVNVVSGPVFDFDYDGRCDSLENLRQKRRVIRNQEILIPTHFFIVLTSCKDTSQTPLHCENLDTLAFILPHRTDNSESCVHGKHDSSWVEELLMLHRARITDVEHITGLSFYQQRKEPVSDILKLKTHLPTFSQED
Briefly: Cellular enzymatic assay of ENPP-1 inhibitors using TMP-pNP as substrate, HEK 293 cells. It is filed as cell-based. The note with it: for inhibition at 20 µM: HEK293, HEK 293 cells, read-out: Inhibition (at 20 μM). How it is done:
(§2) ENPP-1 were mainly expressed on the surface of cell membrane where it hydrolytes 2′3′-cGAMP to generate 5′-GMP and 5′-AMP. ENPP-1 also has the ability to hydrolyzes artificial phosphoric acid ester TMP-pNP to nucleotide-5′-monophosphate and p-nitrophcnol there, which is a chromogenic product.
(§3) 8 point of different concentrations of each inhibitor were prepared with the final assay concentrations starting at 20 μM. 3× series dilution by DMEM medium without FBS was applied. Prior to adding inhibitors, 75000 cells per well were incubated at 37° C., 5% CO2 in DMEM for 24 hours. After removing the supernatant medium, 50 μL inhibitor solution was added into each well with cultured cells and incubate at 37° C., 5% CO2 for 60 minutes.
(§4) The IC50 values for percent inhibition versus compound concentration are determined by fitting the inhibition curves using a four-parameter variable slope model in GraphPad Prism® 8.

In the next series the target is T2, ENPP-1, Saos-2 cells (Homo sapiens, UniProt P22413).
T2 construct: ENPP-1 were mainly expressed on the surface of cell membrane; endogenous in cells; host or cells: Saos-2
T2 sequence (P22413 1-925): T1 sequence (P22413 1-925)
Briefly: Cellular enzymatic assay of ENPP-1 inhibitors using TMP-pNP as substrate, Saos-2 cells. The class given is cell-based. How it is done: as §2, §3, §4

Series [2] in a line: Liver microsome stability, mouse. It is filed as in vitro ADME. The procedure: as §1
(In general: Microsomes from liver hold many membrane-bound enzymes, among them those of drug oxidation.)

For `COc1cc2ncc3ncn(Cc4ccc(S(N)(=O)=O)cn4)c3c2cc1OC` [Compound 12, 6-((7,8-dimethoxy-1H-imidazo[4,5-c]quinolin-1-yl)methyl)pyridine-3-sulfonamide], the “Hepatic extraction ratio Re” value is recorded as 0.14 in series [1] (Human liver microsome) and 0.20 in series [2] (Mouse liver microsome). For the same compound, the half-life in series [1] (liver microsomes, Human liver microsome 0.5 mg/mL, NADPH and UDPGA, 37° C., read-out: Half-life t1/2) was found to be 8.27 h; in series [2] (liver microsomes, Mouse liver microsome 0.5 mg/mL, NADPH and UDPGA, 37° C., read-out: Half-life t1/2), 3.95 h. For the same compound, the microsomal CLint in series [1] (liver microsomes, Human liver microsome, read-out: Intrinsic clearance Cl′int, (μL/min/mg protein)) came to 2.8 µL/min/mg; in series [2] (liver microsomes, Mouse liver microsome, read-out: Intrinsic clearance Cl′int, (μL/min/mg protein)) it was 5.9 µL/min/mg. In addition, the pIC50 against ENPP-1, HEK293 cells was 5.64; against ENPP-1, Saos-2 cells, 6.00. For the same compound, the inhibition at 20 µM came out at 85% at ENPP-1, HEK293 cells and 87% on ENPP-1, Saos-2 cells (Saos-2 cells, @20 μM, read-out: % Inhibition (@20 μM)).

For `COc1ccc2c(ncc3nc(C)n(Cc4ccc(S(N)(=O)=O)cc4)c32)n1` [Compound 48, 4-((7-methoxy-2-methyl-1H-imidazo[4,5-c][1,8]naphthyridin-1-yl)methyl)benzenesulfonamide], at ENPP-1, HEK293 cells, the pIC50 was 6.17 and the inhibition at 20 µM worked out at 95%.
